# Test results as given in ChEMBL document CHEMBL1135084, “DNA cleavage by aromatic amines” (Bioorg Med Chem Lett, 2002).
# Several values for one entry are separate records, joined by “and”; a condition that tells them apart may be missing. Identical values can stand only once.
# Experiments:
# Assay type in all cases: functional
# Settings in all cases: Enterobacteria phage phiX174
# Nucleic Acid [1] = test: Percent DNA cleavage induced by administering the compound (1.0 uM) within 48 hr to form RfI DNA was determined by using phiX174 bacteriophage DNA
# Nucleic Acid [2] = test: Percent DNA cleavage induced by administering the compound (1.0 uM) within 48 hr to form RfII DNA was determined by using phiX174 bacteriophage DNA
# Nucleic Acid [3] = test: Percent DNA cleavage induced by administering the compound (1.0 uM) within 48 hr to form RfIII DNA was determined by using phiX174 bacteriophage DNA
# Nucleic Acid [4] = test: Percent DNA cleavage induced by administering the compound (1.0 uM) within 12 hr to form RfI DNA was determined by using phiX174 bacteriophage DNA
# Nucleic Acid [5] = test: Percent DNA cleavage induced by administering the compound (1.0 uM) within 12 hr to form RfII DNA was determined by using phiX174 bacteriophage DNA
# Nucleic Acid [6] = test: Percent DNA cleavage induced by administering the compound (1.0 uM) within 12 hr to form RfIII DNA was determined by using phiX174 bacteriophage DNA
# Nucleic Acid [7] = test: Percent DNA cleavage induced by administering the compound (0.1 uM) within 24hto form RfIII DNA was determined by using phiX174 bacteriophage DNA
# Nucleic Acid [8] = test: Percent DNA cleavage induced by administering the compound (0.1 uM) within 24 hr to form RfI DNA was determined by using phiX174 bacteriophage DNA
# Nucleic Acid [9] = test: Percent DNA cleavage induced by administering the compound (0.1 uM) within 24 hr to form RfII DNA was determined by using phiX174 bacteriophage DNA
# Nucleic Acid [10] = test: Percent DNA cleavage induced by administering the compound (0.1 uM) within 24 hr to form RfIII DNA was determined by using phiX174 bacteriophage DNA
# Nucleic Acid [11] = test: Percent DNA cleavage induced by administering the compound (0.1 uM) within 48 hr to form RfI DNA was determined by using phiX174 bacteriophage DNA
# Nucleic Acid [12] = test: Percent DNA cleavage induced by administering the compound (0.1 uM) within 48 hr to form RfII DNA was determined by using phiX174 bacteriophage DNA
# Nucleic Acid [13] = test: Percent DNA cleavage induced by administering the compound (0.1 uM) within 48 hr to form RfIII DNA was determined by using phiX174 bacteriophage DNA
# Nucleic Acid [14] = test: Percent DNA cleavage induced by administering the compound (0.1 uM) within 12 hr to form RfI DNA was determined by using phiX174 bacteriophage DNA
# Nucleic Acid [15] = test: Percent DNA cleavage induced by administering the compound (0.1 uM) within 12 hr to form RfII DNA was determined by using phiX174 bacteriophage DNA
# Nucleic Acid [16] = test: Percent DNA cleavage induced by administering the compound (0.1 uM) within 12 hr to form RfIII DNA was determined by using phiX174 bacteriophage DNA
# Nucleic Acid [17] = test: Percent DNA cleavage induced by administering the compound (0.1 uM), additive 1000 uM distamycin A within 24 hr to form RfI DNA was determined by using phiX174 bacteriophage DNA
# Nucleic Acid [18] = test: Percent DNA cleavage induced by administering the compound (0.1 uM), additive 1000 uM distamycin A within 24 hr to form RfII DNA was determined by using phiX174 bacteriophage DNA
# Nucleic Acid [19] = test: Percent DNA cleavage induced by administering the compound (0.1uM), additive 10 uM distamycin A within 24 hr to form RfI DNA was determined by using phiX174 bacteriophage DNA
# Nucleic Acid [20] = test: Percent DNA cleavage induced by administering the compound (0.1 uM), additive 10 uM distamycin A within 24 hr to form RfII DNA was determined by using phiX174 bacteriophage DNA
# Nucleic Acid [21] = test: Percent DNA cleavage induced by administering the compound (0.1 uM), additive 10 uM distamycin A within 24 hr to form RfIII DNA was determined by using phiX174 bacteriophage DNA
# Nucleic Acid [22] = test: Percent DNA cleavage induced by administering the compound (0.1 uM), additive Ar/N2 within 12 hr to form RfI DNA was determined by using phiX174 bacteriophage DNA
# Nucleic Acid [23] = test: Percent DNA cleavage induced by administering the compound (0.1 uM), additive Ar/N2 within 12 hr to form RfII DNA was determined by using phiX174 bacteriophage DNA
# Nucleic Acid [24] = test: Percent DNA cleavage induced by administering the compound (0.1 uM), additive Ar/N2 within 12 hr to form RfIII DNA was determined by using phiX174 bacteriophage DNA
# Nucleic Acid [25] = test: Percent DNA cleavage induced by administering the compound (0.1 uM), additive 1000 uM distamycin A within 24 hr to form RfIII DNA was determined by using phiX174 bacteriophage DNA
# Nucleic Acid [26] = test: Percent DNA cleavage induced by administering the compound (0.1 uM), additive 100 uM distamycin A within 24 hr to form RfI DNA was determined by using phiX174 bacteriophage DNA
# Nucleic Acid [27] = test: Percent DNA cleavage induced by administering the compound (0.1 uM), additive 100 uM distamycin A within 24 hr to form RfII DNA was determined by using phiX174 bacteriophage DNA
# Nucleic Acid [28] = test: Percent DNA cleavage induced by administering the compound (0.1 uM), additive 100 uM distamycin A within 24 hr to form RfIII DNA was determined by using phiX174 bacteriophage DNA
# Nucleic Acid [29] = test: Percent DNA cleavage induced by administering the compound (0.1 uM), additive 10 mM aliquots of metal chlorides M2+/3- within 12 hr to form RfI DNA was determined by using phiX174 bacteriophage DNA
# Nucleic Acid [30] = test: Percent DNA cleavage induced by administering the compound (0.1 uM), additive 10 mM aliquots of metal chlorides M2+/3- within 12 hr to form RfII DNA was determined by using phiX174 bacteriophage DNA
# Nucleic Acid [31] = test: Percent DNA cleavage induced by administering the compound (0.1 uM), additive 10 mM aliquots of metal chlorides M2+/3- within 12 hr to form RfIII DNA was determined by using phiX174 bacteriophage DNA
# Nucleic Acid [32] = test: Percent DNA cleavage induced by administering the compound within 12 hr to form RfI DNA was determined by using phiX174 bacteriophage DNA
# Nucleic Acid [33] = test: Percent DNA cleavage induced by administering the compound (1.0 uM) within 12 hr to form RfIII DNA was determined by using phiX174 bacteriophage DNA by using phiX174 bacteriophage DNA
structure (smiles),measurement,setting,value
CCOC(=O)c1cc(NC(=O)c2cccc(N)c2)cc(NC(=O)c2cccc([N+](=O)[O-])c2)c1,Cleavage,Nucleic Acid [1],0%
same,Cleavage,Nucleic Acid [2],75%
same,Cleavage,Nucleic Acid [3],25%
same,Cleavage,Nucleic Acid [4],1%
same,Cleavage,Nucleic Acid [5],99%
same,Cleavage,Nucleic Acid [6],0%
COc1cc(N)cc(C(=O)Nc2cc(NC(=O)c3ccccc3)cc(C(=O)NCCNC(=O)c3cc(NC(=O)c4ccccc4)cc(NC(=O)c4cc(N)cc(OC)c4)c3)c2)c1,Cleavage,Nucleic Acid [7],0% and 1%
Nc1cccc(C(=O)Nc2cc(NC(=O)c3ccccc3)cc(C(=O)NCNC(=O)c3cc(NC(=O)c4ccccc4)cc(NC(=O)c4cccc(N)c4)c3)c2)c1,Cleavage,Nucleic Acid [8],0%
same,Cleavage,Nucleic Acid [9],100%
same,Cleavage,Nucleic Acid [10],0%
Nc1cc(C(=O)Nc2cc(NC(=O)c3ccccc3)cc(C(=O)NCCNC(=O)c3cc(NC(=O)c4ccccc4)cc(NC(=O)c4cc(N)cc([N+](=O)[O-])c4)c3)c2)cc([N+](=O)[O-])c1,Cleavage,Nucleic Acid [8],36%
same,Cleavage,Nucleic Acid [9],64%
same,Cleavage,Nucleic Acid [10],0%
same,Cleavage,Nucleic Acid [11],10%
same,Cleavage,Nucleic Acid [12],90%
same,Cleavage,Nucleic Acid [13],0%
Nc1cccc(C(=O)Nc2cc(NC(=O)c3ccccc3)cc(C(=O)NCCCCCCNC(=O)c3cc(NC(=O)c4ccccc4)cc(NC(=O)c4cccc(N)c4)c3)c2)c1,Cleavage,Nucleic Acid [14],38%
same,Cleavage,Nucleic Acid [15],62%
same,Cleavage,Nucleic Acid [16],0%
CCOC(=O)c1cc(NC(=O)c2cc(N)cc(OC)c2)cc(NC(=O)c2cccc([N+](=O)[O-])c2)c1,Cleavage,Nucleic Acid [4],11%
same,Cleavage,Nucleic Acid [5],89%
same,Cleavage,Nucleic Acid [6],0%
Nc1cccc(C(=O)Nc2cc(NC(=O)c3ccccc3)cc(C(=O)NCCCNC(=O)c3cc(NC(=O)c4ccccc4)cc(NC(=O)c4cccc(N)c4)c3)c2)c1,Cleavage,Nucleic Acid [8],24%
same,Cleavage,Nucleic Acid [9],76%
same,Cleavage,Nucleic Acid [10],0%
same,Cleavage,Nucleic Acid [11],1%
same,Cleavage,Nucleic Acid [12],99%
same,Cleavage,Nucleic Acid [13],0%
same,Cleavage,Nucleic Acid [17],95%
same,Cleavage,Nucleic Acid [18],5%
same,Cleavage,Nucleic Acid [19],25%
same,Cleavage,Nucleic Acid [20],75%
same,Cleavage,Nucleic Acid [21],0%
same,Cleavage,Nucleic Acid [22],26%
same,Cleavage,Nucleic Acid [23],74%
same,Cleavage,Nucleic Acid [24],0%
same,Cleavage,Nucleic Acid [25],0%
same,Cleavage,Nucleic Acid [26],65%
same,Cleavage,Nucleic Acid [27],35%
same,Cleavage,Nucleic Acid [28],0%
same,Cleavage,Nucleic Acid [29],27%
same,Cleavage,Nucleic Acid [30],73%
same,Cleavage,Nucleic Acid [31],0%
Nc1cccc(C(=O)Nc2cc(NC(=O)c3ccccc3)cc(C(=O)NCCCCCNC(=O)c3cc(NC(=O)c4ccccc4)cc(NC(=O)c4cccc(N)c4)c3)c2)c1,Cleavage,Nucleic Acid [8],35%
same,Cleavage,Nucleic Acid [9],65%
same,Cleavage,Nucleic Acid [10],0%
CCOC(=O)c1cc(N)cc([N+](=O)[O-])c1,Cleavage,Nucleic Acid [32],90%
same,Cleavage,Nucleic Acid [5],10%
same,Cleavage,Nucleic Acid [33],0%
Nc1cccc(C(=O)Nc2cc(NC(=O)c3ccccc3)cc(C(=O)NCCNC(=O)c3cc(NC(=O)c4ccccc4)cc(NC(=O)c4cccc(N)c4)c3)c2)c1,Cleavage,Nucleic Acid [8],35%
same,Cleavage,Nucleic Acid [9],65%
same,Cleavage,Nucleic Acid [10],0%
same,Cleavage,Nucleic Acid [11],7%
same,Cleavage,Nucleic Acid [12],93%
same,Cleavage,Nucleic Acid [13],0%
Nc1cccc(C(=O)Nc2cc(NC(=O)c3ccccc3)cc(C(=O)NCCCCNC(=O)c3cc(NC(=O)c4ccccc4)cc(NC(=O)c4cccc(N)c4)c3)c2)c1,Cleavage,Nucleic Acid [14],37%
same,Cleavage,Nucleic Acid [15],63%
same,Cleavage,Nucleic Acid [16],0%
CCOC(=O)c1cc(NC(=O)c2cccc([N+](=O)[O-])c2)cc(NC(=O)c2cc(N)cc([N+](=O)[O-])c2)c1,Cleavage,Nucleic Acid [4],44%
same,Cleavage,Nucleic Acid [5],56%
same,Cleavage,Nucleic Acid [6],0%
